Experiments:
Assay in all cases: KinaseProfiler kinase panel
Type in all cases: biochemical
FGFR1(V561M)(h) = FGFR1(V561M)(h) (Homo sapiens (Human), UniProt P11362, V561M)
TAO2(h) = TAO2(h) (Homo sapiens (Human), UniProt Q9UL54)
HIPK2(h) = HIPK2(h) (Homo sapiens (Human), UniProt Q9H2X6)
TSSK1(h) = TSSK1(h) (Homo sapiens (Human), UniProt Q9BXA7)
c-RAF(h) = c-RAF(h) (Homo sapiens (Human), UniProt P04049, Y340D/Y341D)
GSK3α(h) = GSK3α(h) (Homo sapiens (Human), UniProt P49840)
PTK5(h) = PTK5(h) (Homo sapiens (Human), UniProt P42685)
Abl (M351T)(h) = Abl (M351T)(h) (Homo sapiens (Human), UniProt P00519, M351T)
Arg(m) = Arg(m) (Mus musculus (Mouse), UniProt Q4JIM5)
cKit(h) = cKit(h) (Homo sapiens (Human), UniProt P10721)
EGFR(L861Q)(h) = EGFR(L861Q)(h) (Homo sapiens (Human), UniProt P00533, L861Q)
Abl(m) = Abl(m) (Mus musculus (Mouse), UniProt P00520)
Hck(h) activated = Hck(h) activated (Homo sapiens (Human), UniProt P08631)
Lck(h) = Lck(h) (Homo sapiens (Human), UniProt P06239)
MuSK(h) = MuSK(h) (Homo sapiens (Human), UniProt O15146)
PKBγ(h) = PKBγ(h) (Homo sapiens (Human), UniProt Q9Y243)
FGFR2(h) = FGFR2(h) (Homo sapiens (Human), UniProt P21802)
EGFR(L858R)(h) = EGFR(L858R)(h) (Homo sapiens (Human), UniProt P00533, L858R)
mTOR/FKBP12(h) = mTOR/FKBP12(h) (Homo sapiens (Human), UniProt P42345)
Abl (Q252H) (h) = Abl (Q252H) (h) (Homo sapiens (Human), UniProt P00519, Q252H)
ALK(h) = ALK(h) (Homo sapiens (Human), UniProt Q9UM73)
EphA4(h) = EphA4(h) (Homo sapiens (Human), UniProt P54764)
CK2α2(h) = CK2α2(h) (Homo sapiens (Human), UniProt P19784)
IGF-1R(h), activated = IGF-1R(h), activated (Homo sapiens (Human), UniProt P08069)
LOK(h) = LOK(h) (Homo sapiens (Human), UniProt O94804)
TAO3(h) = TAO3(h) (Homo sapiens (Human), UniProt Q9H2K8)
MST3(h) = MST3(h) (Homo sapiens (Human), UniProt Q9Y6E0)
Mnk2(h) = Mnk2(h) (Homo sapiens (Human), UniProt Q9HBH9)
CK1γ3(h) = CK1γ3(h) (Homo sapiens (Human), UniProt Q9Y6M4)
PKCβII(h) = PKCβII(h) (Homo sapiens (Human), UniProt P05771)
DCAMKL2(h) = DCAMKL2(h) (Homo sapiens (Human), UniProt Q8N568)
BTK(h) = BTK(h) (Homo sapiens (Human), UniProt Q06187)
TGFBR1(h) = TGFBR1(h) (Homo sapiens (Human), UniProt P36897)
PKCι(h) = PKCι(h) (Homo sapiens (Human), UniProt P41743)
Fms(Y969C)(h) = Fms(Y969C)(h) (Homo sapiens (Human), UniProt P07333, Y969C)
EphB3(h) = EphB3(h) (Homo sapiens (Human), UniProt P54753)
GRK7(h) = GRK7(h) (Homo sapiens (Human), UniProt Q8WTQ7)
CDK9/cyclin T1(h) = CDK9/cyclin T1(h) (Homo sapiens (Human), UniProt P50750)
BTK(R28H)(h) = BTK(R28H)(h) (Homo sapiens (Human), UniProt Q06187, R28H)

Chain of PKCι(h) (P41743 whole entry): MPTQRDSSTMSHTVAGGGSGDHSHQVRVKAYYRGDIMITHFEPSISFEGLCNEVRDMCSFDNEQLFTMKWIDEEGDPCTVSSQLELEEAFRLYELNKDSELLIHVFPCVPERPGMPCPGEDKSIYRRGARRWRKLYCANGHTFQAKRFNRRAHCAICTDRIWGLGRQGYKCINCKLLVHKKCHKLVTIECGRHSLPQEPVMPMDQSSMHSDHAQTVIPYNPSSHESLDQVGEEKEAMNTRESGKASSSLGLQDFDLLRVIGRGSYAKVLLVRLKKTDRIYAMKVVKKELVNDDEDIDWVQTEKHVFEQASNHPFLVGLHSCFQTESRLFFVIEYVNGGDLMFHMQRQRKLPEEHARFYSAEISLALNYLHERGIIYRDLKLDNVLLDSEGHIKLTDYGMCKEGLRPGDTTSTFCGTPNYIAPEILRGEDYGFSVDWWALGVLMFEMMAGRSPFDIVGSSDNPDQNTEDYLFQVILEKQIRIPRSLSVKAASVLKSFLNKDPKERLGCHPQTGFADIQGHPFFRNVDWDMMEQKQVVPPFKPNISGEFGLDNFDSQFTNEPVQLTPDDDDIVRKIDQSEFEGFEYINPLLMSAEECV
Chain of c-RAF(h) (P04049 306-648 Y340D/Y341D limits assumed): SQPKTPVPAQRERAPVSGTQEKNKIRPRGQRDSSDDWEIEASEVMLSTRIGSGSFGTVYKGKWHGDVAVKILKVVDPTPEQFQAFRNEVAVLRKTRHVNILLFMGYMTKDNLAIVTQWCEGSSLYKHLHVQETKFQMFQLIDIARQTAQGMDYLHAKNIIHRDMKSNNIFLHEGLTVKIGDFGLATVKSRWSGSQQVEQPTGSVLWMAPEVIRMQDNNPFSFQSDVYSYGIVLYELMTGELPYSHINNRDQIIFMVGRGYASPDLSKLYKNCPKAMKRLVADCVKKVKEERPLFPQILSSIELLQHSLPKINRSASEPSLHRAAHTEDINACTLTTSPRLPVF
Chain of Mnk2(h) (Q9HBH9 whole entry): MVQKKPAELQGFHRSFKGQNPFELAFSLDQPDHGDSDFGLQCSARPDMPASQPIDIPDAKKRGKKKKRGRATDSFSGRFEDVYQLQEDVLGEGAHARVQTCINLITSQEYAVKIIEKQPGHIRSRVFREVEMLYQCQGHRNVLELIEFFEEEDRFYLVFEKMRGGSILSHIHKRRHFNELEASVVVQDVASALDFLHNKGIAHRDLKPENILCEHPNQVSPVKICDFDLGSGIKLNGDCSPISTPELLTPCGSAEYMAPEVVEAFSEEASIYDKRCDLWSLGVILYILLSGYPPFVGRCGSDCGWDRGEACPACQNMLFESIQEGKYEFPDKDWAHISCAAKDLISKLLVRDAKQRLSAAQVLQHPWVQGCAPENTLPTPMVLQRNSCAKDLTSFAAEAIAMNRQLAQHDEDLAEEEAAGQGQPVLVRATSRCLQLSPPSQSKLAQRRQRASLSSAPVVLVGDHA
Chain of FGFR2(h) (P21802 22-821): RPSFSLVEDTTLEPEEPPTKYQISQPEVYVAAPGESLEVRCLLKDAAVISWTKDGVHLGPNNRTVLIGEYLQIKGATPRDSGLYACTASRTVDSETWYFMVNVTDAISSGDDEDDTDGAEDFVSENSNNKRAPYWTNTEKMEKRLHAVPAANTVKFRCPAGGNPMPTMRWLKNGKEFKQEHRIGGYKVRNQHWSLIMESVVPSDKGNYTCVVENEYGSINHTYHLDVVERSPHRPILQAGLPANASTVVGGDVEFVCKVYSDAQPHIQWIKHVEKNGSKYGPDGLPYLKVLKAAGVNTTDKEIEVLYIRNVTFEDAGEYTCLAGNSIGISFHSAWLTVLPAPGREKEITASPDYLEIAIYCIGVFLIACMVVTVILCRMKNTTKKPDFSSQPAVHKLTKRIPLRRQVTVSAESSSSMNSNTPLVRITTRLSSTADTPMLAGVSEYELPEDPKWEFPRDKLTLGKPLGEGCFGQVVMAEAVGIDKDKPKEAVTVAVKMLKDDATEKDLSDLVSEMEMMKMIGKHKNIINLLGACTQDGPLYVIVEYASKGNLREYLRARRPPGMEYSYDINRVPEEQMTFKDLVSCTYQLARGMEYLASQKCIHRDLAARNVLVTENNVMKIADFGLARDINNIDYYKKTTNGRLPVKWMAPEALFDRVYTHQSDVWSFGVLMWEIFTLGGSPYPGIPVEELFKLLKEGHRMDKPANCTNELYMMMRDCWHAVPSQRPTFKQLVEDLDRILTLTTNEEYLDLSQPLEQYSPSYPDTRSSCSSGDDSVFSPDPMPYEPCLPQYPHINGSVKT
Chain of TAO2(h) (Q9UL54 whole entry): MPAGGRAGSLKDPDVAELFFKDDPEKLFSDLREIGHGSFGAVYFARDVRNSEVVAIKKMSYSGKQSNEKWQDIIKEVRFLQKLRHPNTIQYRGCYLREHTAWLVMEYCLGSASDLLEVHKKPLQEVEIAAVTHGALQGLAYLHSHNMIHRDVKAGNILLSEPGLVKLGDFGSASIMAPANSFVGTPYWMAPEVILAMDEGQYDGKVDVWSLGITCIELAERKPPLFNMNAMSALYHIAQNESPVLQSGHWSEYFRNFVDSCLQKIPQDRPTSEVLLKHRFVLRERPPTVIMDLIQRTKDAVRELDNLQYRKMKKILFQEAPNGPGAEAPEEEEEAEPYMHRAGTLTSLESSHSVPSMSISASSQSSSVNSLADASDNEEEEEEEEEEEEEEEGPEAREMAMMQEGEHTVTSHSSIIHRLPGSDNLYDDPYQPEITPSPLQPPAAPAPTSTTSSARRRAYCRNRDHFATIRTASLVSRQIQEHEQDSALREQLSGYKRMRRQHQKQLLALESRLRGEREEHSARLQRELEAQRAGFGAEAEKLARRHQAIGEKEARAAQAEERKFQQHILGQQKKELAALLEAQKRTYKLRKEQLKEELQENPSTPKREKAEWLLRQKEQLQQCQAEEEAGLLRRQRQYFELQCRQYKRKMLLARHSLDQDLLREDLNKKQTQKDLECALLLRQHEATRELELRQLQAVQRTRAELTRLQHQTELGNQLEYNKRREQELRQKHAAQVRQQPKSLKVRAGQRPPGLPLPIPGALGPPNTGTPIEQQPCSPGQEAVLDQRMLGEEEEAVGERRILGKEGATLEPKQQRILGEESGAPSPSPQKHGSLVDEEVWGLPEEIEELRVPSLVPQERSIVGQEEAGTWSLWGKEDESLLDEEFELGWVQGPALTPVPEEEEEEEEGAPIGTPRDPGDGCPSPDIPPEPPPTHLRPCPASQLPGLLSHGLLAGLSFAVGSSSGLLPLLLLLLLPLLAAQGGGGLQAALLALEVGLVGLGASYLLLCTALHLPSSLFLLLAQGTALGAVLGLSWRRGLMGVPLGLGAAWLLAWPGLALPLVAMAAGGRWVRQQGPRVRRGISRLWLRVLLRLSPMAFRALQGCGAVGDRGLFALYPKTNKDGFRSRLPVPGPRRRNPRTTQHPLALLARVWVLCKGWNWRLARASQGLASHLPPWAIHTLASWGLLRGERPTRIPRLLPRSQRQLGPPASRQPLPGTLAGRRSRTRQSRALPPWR
Chain of cKit(h) (P10721 26-976): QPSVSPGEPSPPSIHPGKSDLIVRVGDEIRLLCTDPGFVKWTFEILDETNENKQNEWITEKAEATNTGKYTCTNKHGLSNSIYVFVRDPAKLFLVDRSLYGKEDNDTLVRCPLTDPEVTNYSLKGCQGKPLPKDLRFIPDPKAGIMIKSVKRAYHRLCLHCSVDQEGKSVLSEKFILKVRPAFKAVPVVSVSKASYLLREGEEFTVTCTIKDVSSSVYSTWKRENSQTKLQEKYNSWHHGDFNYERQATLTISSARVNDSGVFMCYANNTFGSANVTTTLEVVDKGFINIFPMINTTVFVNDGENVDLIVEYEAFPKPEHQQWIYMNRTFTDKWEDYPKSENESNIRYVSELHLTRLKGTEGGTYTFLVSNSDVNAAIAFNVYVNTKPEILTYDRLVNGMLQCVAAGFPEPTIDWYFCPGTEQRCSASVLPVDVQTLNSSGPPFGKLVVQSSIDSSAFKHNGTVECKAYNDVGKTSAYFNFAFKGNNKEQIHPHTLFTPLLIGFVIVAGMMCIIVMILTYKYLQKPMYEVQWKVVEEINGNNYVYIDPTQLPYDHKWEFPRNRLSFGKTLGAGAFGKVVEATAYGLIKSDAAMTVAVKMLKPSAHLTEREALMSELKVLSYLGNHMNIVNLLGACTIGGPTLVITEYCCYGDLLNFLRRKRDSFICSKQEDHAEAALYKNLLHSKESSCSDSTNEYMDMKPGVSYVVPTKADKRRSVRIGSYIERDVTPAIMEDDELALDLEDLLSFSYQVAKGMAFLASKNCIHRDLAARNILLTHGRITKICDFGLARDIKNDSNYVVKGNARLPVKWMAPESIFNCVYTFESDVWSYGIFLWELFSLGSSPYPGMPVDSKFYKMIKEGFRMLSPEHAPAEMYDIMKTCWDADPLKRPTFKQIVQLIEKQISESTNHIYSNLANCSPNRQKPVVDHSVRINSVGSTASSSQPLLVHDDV
Chain of CK1γ3(h) (Q9Y6M4 whole entry): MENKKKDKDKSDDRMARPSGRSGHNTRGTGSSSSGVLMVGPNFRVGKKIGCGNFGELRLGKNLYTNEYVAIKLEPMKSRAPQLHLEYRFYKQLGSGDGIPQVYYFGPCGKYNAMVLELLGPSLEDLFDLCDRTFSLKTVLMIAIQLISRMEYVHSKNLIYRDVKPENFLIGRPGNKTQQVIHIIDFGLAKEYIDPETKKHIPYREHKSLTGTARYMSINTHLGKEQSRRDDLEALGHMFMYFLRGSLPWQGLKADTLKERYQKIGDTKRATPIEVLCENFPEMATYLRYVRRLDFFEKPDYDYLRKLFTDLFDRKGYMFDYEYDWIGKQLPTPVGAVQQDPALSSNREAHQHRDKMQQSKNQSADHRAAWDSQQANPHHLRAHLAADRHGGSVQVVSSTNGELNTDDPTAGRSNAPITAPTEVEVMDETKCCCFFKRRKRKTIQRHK

CCn1c(N2CCNCC2)nc2c(Br)c(Br)c(Br)c(Br)c21 [Compound 416, 4,5,6,7-tetrabromo-1-ethyl-2-(piperazin-1-yl)-1H-benzo[d]imidazole] was tested, and the remaining activity at 1 µM (FGFR1(V561M)(h)) was 69%, the remaining activity at 1 µM (TAO2(h)) was 82% and the remaining activity at 1 µM (HIPK2(h)) was 1%. It also gave a remaining activity at 1 µM (TSSK1(h)) of 96%, a remaining activity at 1 µM (c-RAF(h)) of 85% and a remaining activity at 1 µM (GSK3α(h)) of 60%. The remaining activity at 1 µM (PTK5(h)) was 99%, the remaining activity at 1 µM (Abl (M351T)(h)) was 95% and the remaining activity at 1 µM (Arg(m)) was 96%. For the same compound, the remaining activity at 1 µM (cKit(h)) was 121%, the remaining activity at 1 µM (EGFR(L861Q)(h)) was 27% and the remaining activity at 1 µM (Abl(m)) was 90%. The remaining activity at 1 µM (Hck(h) activated) was 63%, the remaining activity at 1 µM (Lck(h)) was 43% and the remaining activity at 1 µM (MuSK(h)) was 103%. For the same compound, the remaining activity at 1 µM (PKBγ(h)) was 39%, the remaining activity at 1 µM (FGFR2(h)) was 91% and the remaining activity at 1 µM (EGFR(L858R)(h)) was 22%. It also gave a remaining activity at 1 µM (mTOR/FKBP12(h)) of 103%, a remaining activity at 1 µM (Abl (Q252H) (h)) of 98% and a remaining activity at 1 µM (ALK(h)) of 106%. The remaining activity at 1 µM (EphA4(h)) was 99%, the remaining activity at 1 µM (CK2α2(h)) was 73% and the remaining activity at 1 µM (IGF-1R(h), activated) was 87%. For the same compound, the remaining activity at 1 µM (LOK(h)) was 50%, the remaining activity at 1 µM (TAO3(h)) was 14% and the remaining activity at 1 µM (MST3(h)) was 93%. For the same compound, the remaining activity at 1 µM (Mnk2(h)) was 17%, the remaining activity at 1 µM (CK1γ3(h)) was 89% and the remaining activity at 1 µM (PKCβII(h)) was 98%. For the same compound, the remaining activity at 1 µM (DCAMKL2(h)) was 101%, the remaining activity at 1 µM (BTK(h)) was 107% and the remaining activity at 1 µM (TGFBR1(h)) was 87%. It also gave a remaining activity at 1 µM (PKCι(h)) of 104%, a remaining activity at 1 µM (Fms(Y969C)(h)) of 92% and a remaining activity at 1 µM (EphB3(h)) of 121%. It also gave a remaining activity at 1 µM (GRK7(h)) of 93%, a remaining activity at 1 µM (CDK9/cyclin T1(h)) of 27% and a remaining activity at 1 µM (BTK(R28H)(h)) of 102%.

Reference: US8604217B2, “Compound, a process for its preparation, a pharmaceutical composition, use of a compound, a method for modulating or regulating serine/threonine kinases and a serine/threonine kinases modulating agent” (Selvita S.A., priority 2009, dated 2013)
